From ChEMBL document CHEMBL1142355, “Antimalarial dual drugs based on potent inhibitors of glutathione reductase from Plasmodium falciparum” (J Med Chem, 2008)

Key:
KB = assay: Cytotoxicity against human KB cells by alamar blue assay; assay type: functional, cell-based; conditions: for CC50: read-out: TD50 (the source's name)
Plasmodium falciparum [1] = assay: Antiparasitic activity against chloroquine-resistant Plasmodium falciparum K1; assay type: functional, organism-based
Plasmodium falciparum [2] = assay: Antiparasitic activity against chloroquine-sensitive Plasmodium falciparum 3D7; assay type: functional, organism-based
Plasmodium falciparum [3] = assay: Relative IC50 against Plasmodium falciparum K1 and 3D7; assay type: functional
Plasmodium falciparum [4] = assay: microbe, parasite or virus in culture; conditions: 3 h
Description: Antiparasitic activity against chloroquine-sensitive Plasmodium falciparum by [3H]hypoxanthine incorporation

Plasmodium berghei [5] = assay: Reduced parasitemia in Plasmodium berghei ANKA infected BALB/c mice (Mus musculus) at 21 mg/kg intraperitoneal dose after 4 days; assay type: functional; set-up: scale not given: the % may be the effect or the level left
Plasmodium berghei [6] = assay: Antimalarial activity against Plasmodium berghei ANKA infected BALB/c mice (Mus musculus) at 21 mg/kg intraperitoneal dose after 4 days; assay type: functional; conditions: ip, 96 h
Plasmodium berghei [7] = assay: Antimalarial 95% clearance activity against Plasmodium berghei ANKA infected BALB/c mice (Mus musculus) at 21 mg/kg intraperitoneal dose after 4 days; assay type: functional
Plasmodium berghei [8] = assay: Antimalarial 95% clearance activity against Plasmodium berghei ANKA infected BALB/c mice (Mus musculus) at 30 mg/kg intraperitoneal dose after 4 days; assay type: functional
Plasmodium berghei [9] = assay: Reduced parasitemia in Plasmodium berghei ANKA infected BALB/c mice (Mus musculus) at 30 mg/kg intraperitoneal dose after 4 days; assay type: functional; set-up: scale not given: the % may be the effect or the level left
Plasmodium berghei [10] = assay: Antimalarial activity against Plasmodium berghei ANKA infected BALB/c mice (Mus musculus) at 30 mg/kg intraperitoneal dose after 4 days; assay type: functional; conditions: ip, 96 h
Plasmodium berghei [11] = assay: Reduced parasitemia in Plasmodium berghei ANKA infected BALB/c mice (Mus musculus) at 10 mg/kg peroral dose after 4 days; assay type: functional; set-up: scale not given: the % may be the effect or the level left; conditions: route oral
Plasmodium berghei [12] = assay: Antimalarial activity against Plasmodium berghei ANKA infected BALB/c mice (Mus musculus) at 10 mg/kg peroral dose after 4 days; assay type: functional; conditions: 96 h, route oral

Structure (SMILES)	CC50 (KB) [nM]	IC50 (Plasmodium falciparum [1]) [nM]	IC50 (Plasmodium falciparum [2]) [nM]	Ratio IC50 (Plasmodium falciparum [3])	other results
CC(C)(C)NCCNc1ccnc2cc(Cl)ccc12	143000	128	21.2	6	–
CCN(CC)Cc1cc(Nc2ccnc3cc(Cl)ccc23)ccc1O.Cl	–	6.4	–	0.6	IC50 (Plasmodium falciparum [4]): 9.5 nM
COc1c(C)c(CN(CCNc2ccnc3cc(Cl)ccc23)C(C)C)c(OC)c2ccccc12	85800	105	83.7	–	–
COc1cc(CN(CCNc2ccnc3cc(Cl)ccc23)CC(C)(C)C)c(OC)c2ccccc12	8800	154	237	–	–
CCN(CC)Cc1cc(Nc2ccnc3cc(Cl)ccc23)ccc1OCc1c(C(F)(F)F)c(OC)c2ccccc2c1OC	15000	32	32	1	–
COc1c(C)c(CCCCCC(=O)N(CCNc2ccnc3cc(Cl)ccc23)C(C)C)c(OC)c2ccccc12	6900	302	52.8	5.7	–
COc1cc(CNCCNc2ccnc3cc(Cl)ccc23)c(OC)c2ccccc12	3800	28.4	23.7	–	–
Clc1ccc2c(N3CC3)ccnc2c1	102000	39200	16000	2.4	–
COc1c(CNCCNc2ccnc3cc(Cl)ccc23)c(C(F)(F)F)c(OC)c2ccccc12	28500	16	128	–	–
COc1cc(CN(CCNc2ccnc3cc(Cl)ccc23)CC(C)C)c(OC)c2ccccc12	43800	188	146	–	–
CC1=C(CCCCCC(=O)NCCNc2ccnc3cc(Cl)ccc23)C(=O)c2ccccc2C1=O	22200	367	184	2	–
COc1c(C)c(CN(CCNc2ccnc3cc(Cl)ccc23)CC(C)C)c(OC)c2ccccc12	30600	40.6	183	–	–
COc1cc(CN(CCNc2ccnc3cc(Cl)ccc23)C(C)C)c(OC)c2ccccc12	–	345	517	–	IC50 (KB): 67000 nM
COc1c(CN(CCNc2ccnc3cc(Cl)ccc23)CC(C)C)c(C(F)(F)F)c(OC)c2ccccc12	11900	198	162	–	–
COc1c(CN(CCNc2ccnc3cc(Cl)ccc23)C(C)C)c(C(F)(F)F)c(OC)c2ccccc12	35400	299	184	–	–
COc1c(C)c(CNCCNc2ccnc3cc(Cl)ccc23)c(OC)c2ccccc12	5100	22.9	229	–	–
CC(C)(C)CNCCNc1ccnc2cc(Cl)ccc12	62100	6.8	20.6	0.3	–
COc1c(C)c(Cc2ccc(CC(=O)NCCNc3ccnc4cc(Cl)ccc34)cc2)c(OC)c2ccccc12	11500	505	289	1.7	–
COc1c(C)c(Cc2ccc(CC(=O)N(CCNc3ccnc4cc(Cl)ccc34)C(C)C)cc2)c(OC)c2ccccc12	1700	268	319	0.8	–
Clc1ccc2c(NCCNCC3CC3)ccnc2c1	71900	145	2.7	53.7	–
CC(C)NCCCNc1ccnc2cc(Cl)ccc12	47900	144	3.6	40	–

Structure (SMILES)	CC50 (KB) [nM]	IC50 (Plasmodium falciparum [1]) [nM]	IC50 (Plasmodium falciparum [2]) [nM]	Ratio IC50 (Plasmodium falciparum [3])	other results
CC(C)NCCNc1ccnc2cc(Cl)ccc12	89800	96.7	10.2	9.5	–
COc1c(C)c(CN(CCNc2ccnc3cc(Cl)ccc23)CC(C)(C)C)c(OC)c2ccccc12	10600	134	156	–	–
CC(C)(C)NC(=O)CNc1ccnc2cc(Cl)ccc12	194000	1440	994	1.4	–
CC1=C(CCCCCC(=O)N(CCNc2ccnc3cc(Cl)ccc23)C(C)C)C(=O)c2ccccc2C1=O	37000	9.4	7.5	1.1	Activity (Plasmodium berghei [5]): 12.5%; inhibition in vivo at 21 mg/kg (Plasmodium berghei [6]): 18.2%; Activity (Plasmodium berghei [7]): 2.65%
CC(=O)Nc1ccc(O)c(CN(CCCNc2ccnc3cc(Cl)ccc23)C(C)C)c1	180000	318	22.7	–	–
CC(C)CNCCNc1ccnc2cc(Cl)ccc12	22500	72	22.8	3.1	–
COc1c(COc2ccc(NC(C)=O)cc2)c(C(F)(F)F)c(OC)c2ccccc12	> 715000	15700	6440	2.4	–
CC1=C(Cc2ccc(CC(=O)N(CCNc3ccnc4cc(Cl)ccc34)C(C)C)cc2)C(=O)c2ccccc2C1=O	318000	5.3	12.4	0.4	–
COc1c(CN(CCNc2ccnc3cc(Cl)ccc23)CC(C)(C)C)c(C(F)(F)F)c(OC)c2ccccc12	12000	116	146	–	–
CC(C)(C)CNCCNc1ccnc2cc(Cl)ccc12.Cl	–	–	–	–	Activity (Plasmodium berghei [8]): 0.31%; Activity (Plasmodium berghei [9]): 0.86%; inhibition in vivo at 30 mg/kg (Plasmodium berghei [10]): 94.4%
COc1c(CNCCNc2ccnc3cc(Cl)ccc23)c(C(F)(F)F)c(OC)c2ccccc12.Cl	–	–	–	–	Activity (Plasmodium berghei [8]): 2.82%; Activity (Plasmodium berghei [9]): 12.48%; inhibition in vivo at 30 mg/kg (Plasmodium berghei [10]): 18.3%
CO[C@H]1O[C@@H]2O[C@@]3(C)CC[C@H]4[C@H](C)CC[C@@H]([C@H]1C)[C@@]24OO3	–	–	–	–	IC50 (Plasmodium falciparum [4]): 2.8 nM
NCCNc1ccnc2cc(Cl)ccc12	49600	1800	4.5	400	–
CC(=O)Nc1ccc(O)cc1 [ACETAMINOPHEN]	–	86700	> 198000	<0.4	–
C[C@@H]1CC[C@H]2[C@@H](C)C(=O)O[C@@H]3O[C@@]4(C)CC[C@@H]1[C@]32OO4 [ARTEMISININ]	–	–	–	–	IC50 (Plasmodium falciparum [4]): 4.5 nM
CCN(CC)CCCC(C)Nc1ccnc2cc(Cl)ccc12 (stereo unspecified) [CHLOROQUINE]	127000	–	–	–	Activity (Plasmodium berghei [11]): 0.13%; inhibition in vivo at 10 mg/kg (Plasmodium berghei [12]): 99.2%
O[C@@H](c1cc(C(F)(F)F)nc2c(C(F)(F)F)cccc12)[C@H]1CCCCN1 [MEFLOQUINE]	–	–	–	–	IC50 (Plasmodium falciparum [4]): 4.85 nM
CN(C)c1ccc2nc3ccc(N(C)C)cc3[s+]c2c1 [METHYLENE BLUE ANHYDROUS]	–	–	–	–	IC50 (Plasmodium falciparum [4]): 5.4 nM
Clc1ccc2c(N3CCN(CCCN4CCN(c5ccnc6cc(Cl)ccc56)CC4)CC3)ccnc2c1 [PIPERAQUINE]	–	–	–	–	IC50 (Plasmodium falciparum [4]): 14.6 nM
COc1cc([C@@H]2c3cc4c(cc3[C@H](O)[C@H]3COC(=O)[C@H]23)OCO4)cc(OC)c1OC [PODOFILOX]	49600	–	–	–	–
